From US8518412B2, “Partial peptide of lacritin” (Senju Pharmaceutical Co, Ltd., priority 2009, dated 2013)
Non-standard residues stand in square brackets, D forms with d. No end group written: not given here. pGlu = O=C1CC[C@@H](C(=O)O)N1

System: human corneal epithelial cells (HCE-T)
Test: Adhesion of human corneal epithelial cell to extracellular matrix (collagen type IV coated plate)
Assay type: cell-based
Settings: polypeptide 100 μg/mL, 37° C. 25 min
Protocol: An extracellular matrix solution (10 μg/mL, collagen type IV: Becton, Dickinson and Company, catalog No. 354245) was added to a 96 well plate (Iwaki Glass Company, Limited, catalog No. 3860-096). The solution was incubated at 37° C. for 1 hr to coat the plate with the extracellular matrix. After the redundant extracellular matrix solution was removed, 0.1% BSA solution (Sigma-Aldrich Co., catalog No. A3803) was added to block the region not coated with the extracellular matrix. Successively, the BSA solution was removed and the plate was washed twice with PBS, and polypeptides 1-4 (concentration 100 μg/mL) synthesized in Example 1 (Pyr Lac50-83) and Comparative Examples 1-3 (Lac50-83, Pyr Lac50-94, Lac50-94), and negative control polypeptide (Lac24-56, Lac50-65) were added by 50 μl, per well. […]
Thereafter, the cells were fixed with 10% neutral buffered formaldehyde liquid (NACALAI TESQUE, INC., catalog No. 37152-51), and stained with 1% crystal violet staining solution (Sigma-Aldrich Co., catalog No. C3886). The image of the stained cells was uploaded using an inverted system microscope (Olympus Corporation, IX71), and the area of the adhered cells was measured using Image-Pro Plus Ver. […]

Row | Substance | cell adhesion promoting effect (cell adhesion rate against that without addition of polypeptide as 100%)
1 | Pyr Gly Thr Ala Lys Val Thr Ser Ser Arg Gln Glu Leu Asn Pro Leu Lys Ser Ile Val Glu Lys Ser Ile Leu Leu Thr Glu Gln Ala Leu Ala Lys Ala ([pGlu]GTAKVTSSRQELNPLKSIVEKSILLTEQALAKA; listed as Homo sapiens) [polypeptide 1, pyro-modified partial peptide of lacritin] | confirmed to have an activity to promote cell adhesion
2 | Pyr Gly Thr Ala Lys Val Thr Ser Ser Arg Gln Glu Leu Asn Pro Leu Lys Ser Ile Val Glu Lys Ser Ile Leu Leu Thr Glu Gln Ala Leu Ala Lys Ala Gly Lys Gly Met His Gly Gly Val Pro Gly Gly ([pGlu]GTAKVTSSRQELNPLKSIVEKSILLTEQALAKAGKGMHGGVPGG; listed as Homo sapiens) [polypeptide 3] | lowered activity as compared to that of polypeptide before pyro-modification
